From patent US20240115705A1, “Regulation of Butyrophilin subfamily 3 member A1 (BTN3A1, CD277)” (The J. Gladstone Institutes, a testamentary trust …, priority 2021, published 2024)

Experiments:
BTN3A [1] = assay: Inhibitor dose response, surface BTN3A by flow cytometry in WT Daudi-Cas9 cells; assay type: cell-based, human; settings: 72 hours, complete RPMI, vs vehicle
Protocol: Daudi-Cas9 cells (180 μL) were seeded at 275,000 cells/mL in cRPMI in round-bottom 96-well plates. Twenty μL of zoledronate, rotenone (MedChemExpress), oligomycin A (Neta Scientific), FCCP (MedChemExpress), antimycin A (Neta Scientific), AICAR (Sigma), 2-DG (Sigma), Compound 991 (Selleck Chemical), A-769662 (Sigma), ethanol (vehicle), or DMSO (vehicle, at dilutions matching the treatment) at various concentrations were added to the cells. Plate edge wells were filled with 200 μL of sterile water or PBS. The cells were grown at 37° C. for 72 hours, and stained with APC-conjugated anti-human CD277 antibody (clone BT3.1, 1:50 dilution)(Miltenyi Biotec) and 7-AAD (1:150 dilution) (Tonbo). The cells were then analyzed on the Attune NxT flow cytometer.

Daudi-Cas9 cells = assay: γδ TCR tetramer staining (G115 Vγ9Vδ2 TCR clone) of Daudi-Cas9 cells; assay type: cell-based, human; settings: WT Daudi-Cas9 cells, 72 hours
From the text: The G115 Vγ9Vδ2 TCR clone tetramer was generated using the following methods. The G115 γ-[…] chain sequence (Davodeau et al. J. Immunol. 151, 1214-1223 (1993)) was cloned into the pAcGP67A vector with a C-terminal acidic zipper, and the G115 δ-chain sequence (Davodeau et al. (1993)) as cloned into the pAcGP67A vector with a C-terminal AviTag followed by a basic zipper. Zippers stabilized the TCR complex. The TCR was expressed in the High Five baculovirus insect-cell expression system and purified via affinity chromatography over a Ni-NTA column. TCRs were biotinylated and biotinylation was confirmed using a TrapAvidin SDS-PAGE assay. The G115 TCR was then further purified using size-exclusion chromatography (Superdex200 100/300 GL column, GE Healthcare) and purity was confirmed via SDS-PAGE. Tetramers were generated by incubating biotinylated TCR with streptavidin conjugated to the PE fluorophore.
Daudi-Cas9 KO cells were analyzed 13 and 14 days post-lentiviral transduction. WT Daudi-Cas9 cells were analyzed after being cultured for 72 hours with 0.5 mM AICAR, 80 μM Compound 991, DMSO (vehicle control at the concentration matching Compound 991), or nothing. […] Stained cells were analyzed on the Attune NxT flow cytometer.

BTN2A1 transcripts = assay: RT-qPCR of drug-treated Daudi-Cas9 cells, BTN2A1; assay type: cell-based, human; settings: 80 PM, 72 hours, normalized to ACTB and DMSO
Protocol: (§1) For measurement on Daudi-Cas9 KOs, samples were collected at 13 days after lentiviral transduction. For measurements on drug-treated WT Daudi-Cas9 cells, 180 μL of Daudi-Cas9 cells were seeded in a round-bottom 96-well plate at 275,000 cells/mL. All surrounding wells were filled with 200 μL of sterile PBS or water. With four replicates per treatment, cells were treated with 20 μL of AICAR (final concentration 0.5 mM), Compound 991 (final concentration 80 PM), DMSO, or water. The cells were collected for RT-qPCR measurements after 72 hours of incubation. RNA was extracted from approximately 70,000 cells per sample using the Quick-RNA 96 Kit (Zymo Research) or Direct-zol RNA Microprep Kit (Zymo) according to the manufacturer's protocol without the optional on-column DNase I treatment. According to the manufacturer's protocol, 1 μL of RNA was immediately processed using the Maxima First Strand cDNA Synthesis Kit for RT-qPCR with the dsDNase treatment (Thermo Fisher). Two cDNA synthesis reactions, in addition to a reverse transcriptase minus (RT−) negative control reaction, were performed for each biological replicate. […] Ct values across the three technical replicates for each sample were assessed for significant outliers resulting from technical failures (any samples in triplicate with a standard deviation above 0.2 were assessed) and subsequently averaged. […]

BTN3A1 transcripts = assay: RT-qPCR of drug-treated Daudi-Cas9 cells, BTN3A1; assay type: cell-based, human; settings: 80 PM, 72 hours, normalized to ACTB and DMSO
Protocol: as §1

BTN3A2 transcripts = assay: RT-qPCR of drug-treated Daudi-Cas9 cells, BTN3A2; assay type: cell-based, human; settings: 80 PM, 72 hours, normalized to ACTB and DMSO
Protocol: as §1

BTN3A [2] = assay: Compound C dose response in combination with AICAR or OXPHOS inhibition, surface BTN3A; assay type: cell-based, human; set-up: BTN3A levels vs vehicle control: dose or concentration left out as unconfirmed
Protocol: Daudi-Cas9 cells (170 μL) were seeded at 292,000 cells/mL in cRPMI in round-bottom 96-well plates. Ten μL of Compound C (Abcam) were added to all the cells at various concentrations. At indicated concentrations, 20 μL of rotenone, oligomycin A, FCCP, 2-DG, AICAR, or cRPMI (control) were added to the wells that received Compound C. Ten μL of DMSO at dilutions matching Compound C and 20 μL of cRPMI were added to the DMSO-only vehicle control wells. Plate edge wells were filled with 200 μL of sterile water or PBS. The cells were grown at 37° C. for 72 hours, stained with APC-conjugated anti-human CD277 antibody (clone BT3.1, 1:50 dilution) (Miltenyi Biotec) and 7-AAD (1:150 dilution) (Tonbo), and analyzed on the Attune NxT flow cytometer.

BTN3A [3] = assay: mTOR/ISR compound treatment, surface BTN3A by flow cytometry in AAVS1 and PPAT KO Daudi-Cas9 cells; assay type: cell-based, human; settings: control KO (AAVS1) and purine biosynthesis KO (PPAT) Daudi-Cas9 cells, 10 μM, 72 hours
Protocol: Daudi-Cas9 AAVS1 and PPAT KO cells (190 μL) were seeded at 250,000 cells/mL in round-bottom 96-well plates. Cells received 10 μL of DMSO (vehicle) or one of the following compounds at a final concentration of 10 μM: sephin1 (APE×BIO), ISRIB (MedChemExpress), guanabenz acetate (MedChemExpress), Sal003 (MedChemExpress), salubrinal (MedChemExpress), raphin1 acetate (MedChemExpress), and rapamycin (MilliporeSigma). Edge wells were filled with 200 μL of sterile PBS or water. After being cultured for 72 hours, the cells were stained with APC-conjugated anti-human CD277 antibody (clone BT3.1, 1:50 dilution) (Miltenyi Biotec) and 7-AAD (1:150 dilution) (Tonbo), and analyzed on the Attune NxT flow cytometer.

BTN3A1 = assay: BTN3A expression genome-wide CRISPR knockout screen (FACS sort of surface BTN3A high/low cells); assay type: cell-based, human
[4] = biological target: BTN2A1-BTN3A1-BTN3A2 cell surface complex on Daudi-Cas9 cells (human; Homo sapiens) (UniProt Q7KYR7); assay: flow cytometry, PE-TCR tetramer (160 nM) staining of WT Daudi-Cas9 cells treated 72 h with 80 µM Compound 991 against DMSO
UniProt Q7KYR7, sequence (Q7KYR7 29-527, chain 1 of 3): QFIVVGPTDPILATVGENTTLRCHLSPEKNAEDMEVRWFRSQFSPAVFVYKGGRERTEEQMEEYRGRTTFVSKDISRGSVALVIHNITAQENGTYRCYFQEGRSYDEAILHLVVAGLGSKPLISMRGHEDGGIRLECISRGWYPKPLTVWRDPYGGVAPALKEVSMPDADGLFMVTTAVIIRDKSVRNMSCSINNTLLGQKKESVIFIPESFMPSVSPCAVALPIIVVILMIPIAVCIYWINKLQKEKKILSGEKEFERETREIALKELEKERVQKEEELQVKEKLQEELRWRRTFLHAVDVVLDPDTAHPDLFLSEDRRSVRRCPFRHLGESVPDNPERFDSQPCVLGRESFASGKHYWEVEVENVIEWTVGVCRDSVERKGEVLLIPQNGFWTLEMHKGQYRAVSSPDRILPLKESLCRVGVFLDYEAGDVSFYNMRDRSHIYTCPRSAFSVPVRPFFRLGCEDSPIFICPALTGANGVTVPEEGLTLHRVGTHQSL
UniProt Q7KYR7, sequence (chain, as listed by the source, chain 2 of 3): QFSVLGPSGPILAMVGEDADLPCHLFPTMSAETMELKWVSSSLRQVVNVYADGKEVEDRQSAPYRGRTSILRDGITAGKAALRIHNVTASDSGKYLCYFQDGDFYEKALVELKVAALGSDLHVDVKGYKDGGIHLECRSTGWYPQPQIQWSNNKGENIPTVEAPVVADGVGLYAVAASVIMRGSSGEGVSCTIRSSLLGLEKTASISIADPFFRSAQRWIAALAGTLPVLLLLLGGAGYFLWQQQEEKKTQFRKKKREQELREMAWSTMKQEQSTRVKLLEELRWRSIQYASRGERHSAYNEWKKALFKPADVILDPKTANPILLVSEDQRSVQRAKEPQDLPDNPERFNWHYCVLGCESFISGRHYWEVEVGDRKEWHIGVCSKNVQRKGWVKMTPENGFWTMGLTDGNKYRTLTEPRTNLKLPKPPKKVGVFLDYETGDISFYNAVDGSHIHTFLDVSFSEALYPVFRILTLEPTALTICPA
UniProt Q7KYR7, sequence (chain, as listed by the source, chain 3 of 3): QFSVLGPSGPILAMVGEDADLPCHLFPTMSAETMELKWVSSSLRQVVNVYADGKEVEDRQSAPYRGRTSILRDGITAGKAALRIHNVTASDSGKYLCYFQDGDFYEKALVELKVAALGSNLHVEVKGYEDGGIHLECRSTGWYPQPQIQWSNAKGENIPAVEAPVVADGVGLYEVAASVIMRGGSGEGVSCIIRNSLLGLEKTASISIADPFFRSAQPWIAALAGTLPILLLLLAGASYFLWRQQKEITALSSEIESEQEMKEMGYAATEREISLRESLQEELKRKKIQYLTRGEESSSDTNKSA

[5] = biological target: BTN2A1-BTN3A1-BTN3A2 cell surface complex on Daudi-Cas9 cells (human; Homo sapiens) (UniProt Q7KYR7); assay: flow cytometry, PE-TCR tetramer (160 nM) staining of WT Daudi-Cas9 cells treated 72 h with 0.5 mM AICAR against untreated cells

O=CC[C@@H](O)[C@H](O)[C@H](O)CO [2-DG, 2-deoxy-D-glucose]
surface BTN3A (MFI) (BTN3A [1]): upregulated BTN3A levels

N#Cc1c(O)c2c(-c3ccc(-c4ccccc4O)cc3)csc2[nH]c1=O [A-769662]
surface BTN3A (MFI) (BTN3A [1]): Upregulation of surface BTN3A

NC(=O)c1ncn([C@@H]2O[C@H](CO)[C@@H](O)[C@H]2O)c1N [AICAR, N^1-(β-D-Ribofuranosyl)-5-aminoimidazole-4-carboxamide]
surface BTN3A (MFI) (BTN3A [1]): dramatic increase in surface BTN3A
increase in G115 Vγ9Vδ2 TCR tetramer staining (Daudi-Cas9 cells; 0.5 mM): 40-80%

Cc1ccc(Oc2nc3cc(-c4ccc5c(ccn5C)c4)c(Cl)cc3[nH]2)cc1C(=O)O [Compound 991]
surface BTN3A (MFI) (BTN3A [1]): Upregulation of surface BTN3A
staining with G115 Vγ9Vδ2 TCR tetramer compared to vehicle control-treated cells (Daudi-Cas9 cells; 80 μM): about five times higher
BTN2A1 transcript level by qPCR (BTN2A1 transcripts): transcriptionally upregulated
BTN3A1 transcript level by qPCR (BTN3A1 transcripts): transcriptionally upregulated
BTN3A2 transcript level by qPCR (BTN3A2 transcripts): transcriptionally upregulated

c1cc(-c2cnn3cc(-c4ccc(OCCN5CCCCC5)cc4)cnc23)ccn1 [Compound C]
BTN3A upregulation caused by OXPHOS inhibition (rotenone, oligomycin, FCCP) or glycolysis inhibition (2-DG) (BTN3A [2]; WT Daudi-Cas9 cells co-treated with Compound C, 72 hours): neutralized
AICAR-induced BTN3A upregulation (BTN3A [2]; WT Daudi-Cas9 cells co-treated with increasing amounts of Compound C and AICAR, 72 hours): decreased the AICAR-induced BTN3A upregulation
BTN3A levels vs vehicle control (BTN3A [2]; co-treated with AICAR, Compound C): falling well below those observed in the vehicle control

N#CC(C#N)=NNc1ccc(OC(F)(F)F)cc1 [FCCP, carbonyl cyanide-4 (trifluoromethoxy) phenylhydrazone]
surface BTN3A (MFI) (BTN3A [1]): highest BTN3A upregulation

O=C(COc1ccc(Cl)cc1)NC1CCC(NC(=O)COc2ccc(Cl)cc2)CC1 (centres unmarked) [ISRIB]
BTN3A surface expression (BTN3A [3]): negligible effects

O=C(/C=C/c1ccccc1)NC(NC(=S)Nc1ccc(Cl)cc1)C(Cl)(Cl)Cl (centres unmarked) [Sal003]
BTN3A surface expression (BTN3A [3]): downregulation

O=P(O)(O)C(O)(Cn1ccnc1)P(=O)(O)O [ZOL, zoledronate]
surface BTN3A (MFI) (BTN3A [1]): substantial and dose-dependent increase in BTN3A

N=C(N)N/N=C/c1c(Cl)cccc1Cl [guanabenz]
BTN3A surface expression (BTN3A [3]): negligible effects

CC[C@H]1/C=C/C=C/C[C@@H](C)[C@H](O)[C@@](C)(O)C(=O)[C@@H](C)[C@H](O)[C@@H](C)C(=O)[C@@H](C)[C@H](O)[C@@H](C)/C=C/C(=O)O[C@@H]2[C@H](C)[C@H](CC1)O[C@]1(CC[C@H](C)[C@H](C[C@@H](C)O)O1)[C@H]2C [oligomycin A]
surface BTN3A (MFI) (BTN3A [1]): highest BTN3A upregulation

NC(N)=N/N=C/c1cccc(Cl)c1Cl [raphin1]
BTN3A surface expression (BTN3A [3]): negligible effects

C=C(C)[C@H]1Cc2c(ccc3c2O[C@@H]2COc4cc(OC)c(OC)cc4[C@@H]2C3=O)O1 [rotenone]
surface BTN3A (MFI) (BTN3A [1]): BTN3A upregulation at two lower doses and a downregulation at one higher dose

O=C(/C=C/c1ccccc1)NC(NC(=S)Nc1cccc2cccnc12)C(Cl)(Cl)Cl (centres unmarked) [salubrinal]
BTN3A surface expression (BTN3A [3]): negligible effects

COQ2
Log2 Fold Change (BTN3A1; Table 2, positive regulators of BTN3A1, gene knockout in Daudi-Cas9 cells, FACS sort on surface BTN3A1 (anti-BTN3A1 clone BT3.1), three replicates): 1.1343

PE-conjugated Vγ9Vδ2 TCR (clone G115) tetramer (from UniProt P22629 37-163)
fold tetramer staining against vehicle control-treated cells [4]: 5 fold
percent increase of tetramer staining [5]: 40 to 80%

RPIA
Log2 Fold Change (BTN3A1; gene knockout in Daudi cells expressing Cas9, genome wide CRISPR knockout screen sorted on surface BTN3A1, Table 1 Negative Regulators of BTN3A1): −1.4533

antimycin A
surface BTN3A (MFI) (BTN3A [1]): highest BTN3A upregulation
